For assay [1], the target named is T1, human ghrelin receptor type 1a (GHS-R1a) (Homo sapiens, UniProt Q92847).
T1 construct: expressed in transfected cells; host or cells: HEK-293 cells (membranes)
Put plainly: Receptor binding: displacement of radiolabelled ghrelin on membranes of HEK-293 cells. The following applies: read-out: binding affinities (Ki).

For assay [2], the target named is T2, ghrelin receptor (Rattus norvegicus, UniProt O08725).
T2 construct: from tissue; host or cells: whole animal (rat), i.c.v. or i.v. dosing
Description: Ghrelin-induced GH release in free-moving adult male rats after GHS-A pretreatment (icv or iv). It counts as in vivo. The following applies: vs normal saline; for Plasma GH response to ghrelin i.c.v.: 5 μg antagonist icv 15 min before 500 ng ghrelin icv. The procedure:
(§1) Adult male Sprague Dawley rats (225-260 g) were purchased from Charles River Canada (St. Constant, Canada) and individually housed on a 12-h light, 12-h dark cycle (lights on, 0600-1800 h) in a temperature (22±1° C.)—and humidity-controlled room. Purina rat chow (Ralston Purina Co., St. Louis, Mo.) and tap water were available ad libitum.
(§2) Chronic intracerebroventricular (i.c.v.) and intracardiac venous cannulas were implanted under sodium pentobarbital (50 mg/kg, i.p.) anesthesia using previously described techniques in (2) and (11). The placement of the icv cannulae was verified by both a positive drinking response to i.c.v. carbachol (100 ng/10 μl) injection on the day after surgery and methylene blue dye at the time of death. After surgery, the rats were placed directly in isolation test chambers with food and H2O freely available until body weight returned to preoperative levels (usually within 5-7 d). During this time the rats were handled daily to minimize any stress associated with handling on the day of the experiment. On the test day, food was removed 1.5 h before the start of sampling and was returned at the end.
The efficacy of GHS-A to antagonize ghrelin's stimulatory action on GH at both central and peripheral sites was examined. […] (500 ng). Both the human ghrelin peptide (provided by Dr. K. Chang, Phoenix Pharmaceuticals, Inc., Belmont, Calif.) and the GHS-A were diluted in normal saline just before use. Blood samples (0.35 ml) were withdrawn every 15 min over a 6-h sampling period (1000-1600 h) from all animals. […] All blood samples were immediately centrifuged, and plasma was separated and stored at −20° C. for subsequent assay of GH. To avoid hemodynamic disturbance, the red blood cells were resuspended in normal saline and returned to the animal after removal of the next blood sample.
Blood samples were withdrawn from 1000-1600 h, as described above.

The target of assay [3] is T2, ghrelin receptor. Put plainly: Spontaneous pulsatile GH secretion in free-moving rats after icv GHS-A. It counts as in vivo. The conditions noted are these: 5 μg GHS-A icv; vs normal saline; P<0.01 or less. The procedure:
as §1, §2
These time points were chosen because they correspond closely to the time of onset of the spontaneous GH secretory episodes, as previously documented in our laboratory (2, 4). […]

Assay [4] addresses T2, ghrelin receptor. Description: Ghrelin-stimulated food intake in rats after icv GHS-A. It counts as in vivo. The following applies: 500 ng ghrelin icv, vs normal saline. Here is the method: as §1, §2
Food intake was monitored on an hourly basis as described above. In this experiment, food was removed 1.5 h before the start of the test.

The target of assay [5] is T2, ghrelin receptor. Description: Spontaneous food intake in overnight-fasted rats after icv GHS-A. It counts as in vivo. The following applies: 5 μg GHS-A icv; overnight-fasted animals; P<0.004 vs normal saline. Here is the method:
as §1
Chronic intracerebroventricular (i.c.v.) and intracardiac venous cannulas were implanted under sodium pentobarbital (50 mg/kg, i.p.) anesthesia using previously described techniques in (2) and (11). […]
The effects of the GHS-A on both spontaneous and ghrelin-induced food intake and body weight gain were investigated. […] Food intake was monitored on an hourly basis for 5 h after the initial injection (until 1600 h) and subsequently overnight (1600-0900 h next morning). A measured amount of rat chow pellets was placed in the cage every hour. Spillage was collected by placement of a diaper under the rat cages, and total food consumed for each period was calculated by subtracting uneaten food plus spillage from total given. Body weights were recorded daily at 0900 h. The latency to the onset of the first meal after the injection and the duration of that meal were also monitored.

Assay [6] concerns the target T3, Ghrelin/GHRP/GHS Receptor (Rattus norvegicus, UniProt O08725). Put plainly: In vivo assay of GH release in rat, i.v. peptide alone or plus stimulator, serum GH by RIA. The procedure:
(§3) The peptides were synthesized by the solid phase method and purified by HPLC. GH was determined by Radioimmunoassay (RIA).
For the in vivo assay of GH Release in rat, immature female Sprague Dawley rats were obtained from Charles River from Wilmington, Mass. After arrival they were housed at 25° C. with a 14:10 h light:dark cycle. Water and Purina rat chow were available at libitum. Pups were weaned at 21 days of age.
Immature twenty six day old female Sprague Dawley rats, 3-6 rats per treatment dose, were pretreated with pentobarbital 20 minutes before iv injection of vehicle/peptide or peptide plus stimulator. Injection was made as a 0.1 ml solution. For the non-pentobarbital treated rat assay, peptides were administered iv into the tail vein of conscious rats. All animals were sacrificed by guillotine after iv peptide or vehicle. Trunk blood was collected at +10-15 minutes […], allowed to clot, centrifuged and serum stored until assayed for GH levels by RIA. The GH RIA reagents were distributed by the NIH. Control data was collected from rats treated with only the corresponding vehicle in the absence of peptide or stimulator. Control stimulated data was collected from rats treated with stimulator alone in the absence of any peptide.

The target of assay [7] is T3, Ghrelin/GHRP/GHS Receptor. Description: In vitro cell culture method: GH release from cell culture of pituitary cells, peptide alone or plus stimulator. It counts as cell-based. Details: from cell culture of pituitary cells; endogenous in cells; host or cells: dispersed primary rat anterior pituitary cells, 4 days in culture. Here is the method:
as §3
In vitro GH Release-Female rats of the CD-1 strain were housed in a constant temperature room at 24° C. with 14 h light and 10 h darkness. The rats were fed Purina Rat chow and water at libitum. All studies were started between 0800-1000 hours. Pituitaries of mature female Sprague Dawley rats were rapidly removed after decapitation, neurointermediate lobe discarded and then placed in a pH 7.4 buffer. The pituitaries were cut into ˜3-mm pieces and then transferred to a flask containing HEPS buffer with trypsin and incubated at 37° C. Cells were triturated several times during this period. After dispersion, the cells were collected by centrifugation, wash with DMEM and placed into culture well. Cell cultures were maintained for 4 days at 37° with 8% CO2 added to the incubator atmosphere. After 4 days in culture, cells were washed with lactated Ringer's solution adjusted to pH 7.2-7.4 and then vehicle, peptide alone or peptide plus stimulator was added to media. Incubation time was 60-120 minutes after which media was removed from each well for GH determination. The GH RIA reagents were distributed by the NIH. Control data was collected from cell cultures treated with only the corresponding vehicle in the absence of peptide or stimulator. Control stimulated data was collected from cell cultures treated with stimulator alone in the absence of any peptide.

The target of assay [8] is T3, Ghrelin/GHRP/GHS Receptor. Description: In vitro pituitary incubation method: GH release from isolated pituitary glands, peptide alone or plus stimulator. It counts as cell-based. Details: from cell culture of pituitary cells; endogenous in cells; host or cells: dispersed primary rat anterior pituitary cells, 4 days in culture. The following applies: Table 12; Stimulator *S = Tyr-DTrp-Ala-Trp-Dphe-NH2 alone 0.3 μg/ml. Here is the method: as §3
Hormonal activities were obtained from in vitro studies using pituitaries of 20 day old CD-1 strain Sprague Dawley female rats. Two pituitaries were incubated for a total of 4-6 hours. Medium was removed each hour for RIA of GH level and fresh medium was added again. After two one hour preincubation periods (P1-P2), the vehicle/peptides were added to two one hour incubations (I3-I4). Peptide activity was calculated as the change in the hormonal level (delta) between I3+I4 and P2. For antagonist activity, the incubation was continued for 2 additional hours (I5-I6) where both the peptide and a stimulator of GH secretion was added and the antagonist activity was calculated as the change in the hormonal level (delta) between I5+I6 and P2. The peptides were assayed in triplicate and the hormone was assayed in duplicate. Each value recorded represents the mean of 6. The GH RIA reagents were distributed by the NIH. Control data was collected from isolated pituitary glands treated with only the corresponding vehicle in the absence of peptide or stimulator. Control stimulated data was collected from isolated pituitary glands treated with stimulator alone in the absence of any peptide.

pKi: −log10 of the molar value. “And” between values parts separate entries of the source, which are not always exact repeats. Identical values can stand only once. Where a SMILES comes first, the peptide text is derived from it. Where no end group is shown, it is not given here. [ ]: non-standard residue; d: D form. dTrp(2-Me) = Cc1[nH]c2ccccc2c1C[C@@H](N)C(=O)O; d2Nal = N[C@H](Cc1ccc2ccccc2c1)C(=O)O

T3 sequence (O08725 whole entry): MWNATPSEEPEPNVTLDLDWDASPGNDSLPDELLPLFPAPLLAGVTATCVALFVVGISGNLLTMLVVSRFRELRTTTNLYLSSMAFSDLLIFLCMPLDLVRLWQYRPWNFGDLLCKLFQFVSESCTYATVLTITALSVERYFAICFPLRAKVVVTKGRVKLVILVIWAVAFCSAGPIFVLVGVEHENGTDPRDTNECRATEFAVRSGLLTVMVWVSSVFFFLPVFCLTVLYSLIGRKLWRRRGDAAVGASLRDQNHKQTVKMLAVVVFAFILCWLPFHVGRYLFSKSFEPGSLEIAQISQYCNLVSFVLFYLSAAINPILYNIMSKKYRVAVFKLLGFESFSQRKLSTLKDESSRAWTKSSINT
T2 sequence (O08725 whole entry): as above
T1 sequence (Q92847 whole entry): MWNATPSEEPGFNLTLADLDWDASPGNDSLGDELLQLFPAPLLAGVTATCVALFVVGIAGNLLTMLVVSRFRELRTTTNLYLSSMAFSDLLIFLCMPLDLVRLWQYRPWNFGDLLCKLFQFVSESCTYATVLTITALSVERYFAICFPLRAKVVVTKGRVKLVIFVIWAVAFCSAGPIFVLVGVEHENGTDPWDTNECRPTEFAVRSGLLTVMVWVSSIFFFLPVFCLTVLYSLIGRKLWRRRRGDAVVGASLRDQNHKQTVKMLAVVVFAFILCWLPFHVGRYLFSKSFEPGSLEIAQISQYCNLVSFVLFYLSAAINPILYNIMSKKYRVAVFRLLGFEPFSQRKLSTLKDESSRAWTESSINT

On to `Cc1[nH]c2ccccc2c1C[C@@H](NC(=O)[C@@H](N)Cc1cnc[nH]1)C(=O)N[C@@H](C)C(=O)N[C@@H](Cc1c[nH]c2ccccc12)C(=O)N[C@H](Cc1ccccc1)C(=O)N[C@@H](CCCCN)C(N)=O` [hexarelin] (H-H[dTrp(2-Me)]AW[dF]K-NH2), for which, in assay [1], the negative logarithm of the Ki (pKi) (as a rule, the negative decadic logarithm of the Ki, by convention in mol/L) is 9.23.

Take H[d2Nal][dK]W[dF]K-NH2: the results for the “Plasma GH response to ghrelin i.c.v.” value on ghrelin receptor [2] and on ghrelin receptor [2] (listed as GHS-A) were “virtually obliterated the GH response to ghrelin” and “abolished the stimulatory action of ghrelin on GH release”, respectively. The “Plasma GH response to ghrelin i.v.” value at ghrelin receptor [2] (250 μg antagonist iv 15 min before 5 μg ghrelin iv, listed as GHS-A) is “strongly blocked ghrelin's ability to release GH”. Also, at ghrelin receptor [2] (GHS-A icv pretreatment, 500 ng ghrelin icv, P<0.0003 or less), the “Reduction of GH AUC following i.c.v. ghrelin” value was determined as 15 fold. Moreover, the “Reduction of GH AUC following i.v. ghrelin” value at ghrelin receptor [2] (GHS-A iv pretreatment, 5 μg ghrelin iv, P<0.0003 or less) is recorded as 5 fold. Besides, the “1-h GH AUC's of spontaneous GH secretory episodes at 1100 h and 1400 h, and overall 6-h GH AUC” value at ghrelin receptor [3] was “significantly reduced”. Besides, on ghrelin receptor [4] (5 μg GHS-A icv), the “Cumulative food intake after ghrelin” value is listed as “significantly suppressed for up to 5 h”. In addition, the “Ghrelin-stimulated food intake in the first hour after injections” value on ghrelin receptor [4] (5 μg antagonist icv, P<0.02 or less) is “significantly inhibited”. Also, the “Spontaneous food intake in the first hour after injection” value on ghrelin receptor [5] is on record as “significantly inhibited”.

On to “[dA][d2Nal]AW[dF]K-NH2 [reference compound]”, for which the “Stimulated Control GH” value was 2253 ± 252 ng/mL and 1412 ± 400 ng/mL in assay [6] (Table 2, stimulator DAla-DβNal-Ala-Trp-DPhe-Lys-NH2 alone 0.3 μg, rat); 3214 ± 276 ng/mL and 3105 ± 429 ng/mL and 2406 ± 288 ng/mL and 2825 ± 134 ng/mL and 3104 ± 429 ng/mL in assay [6] (Table 2, stimulator DAla-DβNal-Ala-Trp-DPhe-Lys-NH2 alone 1 μg, rat); 72 ± 9 ng/mL in assay [6] (Table 4, Non-Pentobarbital Rats, stimulator DAla-DβNal-Ala-Trp-DPhe-Lys-NH2 alone 10 μg); 4950 ± 98 ng/mL in assay [6] (Table 4, Pentobarbital Rats, stimulator DAla-DβNal-Ala-Trp-DPhe-Lys-NH2 alone 1 μg). For the same compound, the “Stimulated Control GH release” value is 2420 ± 0 ng/mL and 2811 ± 229 ng/mL and 2385 ± 8 ng/mL in assay [7] (Table 6, stimulator DAla-DβNal-Ala-Trp-DPhe-Lys-NH2 alone 10 ng/ml); 1232 ± 34 ng/mL in assay [7] (Table 9, stimulator DAla-DβNal-Ala-Trp-DPhe-Lys-NH2 alone 1 ng/ml); 905 ± 6 ng/mL and 1153 ± 36 ng/mL and 1216 ± 26 ng/mL and 1461 ± 58 ng/mL and 1016 ± 18 ng/mL and 859 ± 4 ng/mL and 1060 ± 24 ng/mL in assay [7] (Table 10, stimulator DAla-DβNal-Ala-Trp-DPhe-Lys-NH2 alone 1 ng/ml); 905 ± 6 ng/mL and 947 ± 11 ng/mL and 947 ± 33 ng/mL and 1016 ± 18 ng/mL in assay [7] (Table 11, stimulator DAla-DβNal-Ala-Trp-DPhe-Lys-NH2 alone 1 ng/ml).

On to Tyr-DTrp-Ala-Trp-Dphe-NH2, for which, in assay [8], the “Stimulated Control GH release” value was found to be 2218 ± 194 ng/mL.

Values taken from US8536120B2 (The Administrators of The Tulane Educational Fund, priority 2006, dated 2013).
